The source of these data is patent publication EP1028948B1, “PHENYL-ALKYL-IMIDAZOLES AS H3 RECEPTOR ANTAGONISTS” (SCHERING CORPORATION, priority 1997, dated 1999).

The target in this test is T1, H3 receptors (Cavia porcellus, UniProt Q9JI35).
T1 construct: The brain tissue was homogenized using a Polytron in a solution of 50 mM Tris, pH 7.5; from tissue; host or cells: guinea pig brain membranes
As to the kind of experiment: H3 Receptor Binding Assay. The settings on record: guinea pig brain membranes; 3 nM [3H]R-α-methylhistamine or 3 nM [3H]Nα-methylhistamine; 30°C for 30 min. How it is done: The source of the H3 receptors in this experiment was guinea pig brain. The animals weighed 400-600 g. […] The final concentration of tissue in the homogenization buffer was 10% w/v. […] The membranes were frozen and stored at -70°C until needed.
Membranes were then added (400 µg of protein) to the reaction tubes. […] Bound ligand was separated from unbound ligand by filtration, and the amount of radioactive ligand bound to the membranes was quantitated by liquid scintillation spectrometry.

T1 sequence (Q9JI35 whole entry): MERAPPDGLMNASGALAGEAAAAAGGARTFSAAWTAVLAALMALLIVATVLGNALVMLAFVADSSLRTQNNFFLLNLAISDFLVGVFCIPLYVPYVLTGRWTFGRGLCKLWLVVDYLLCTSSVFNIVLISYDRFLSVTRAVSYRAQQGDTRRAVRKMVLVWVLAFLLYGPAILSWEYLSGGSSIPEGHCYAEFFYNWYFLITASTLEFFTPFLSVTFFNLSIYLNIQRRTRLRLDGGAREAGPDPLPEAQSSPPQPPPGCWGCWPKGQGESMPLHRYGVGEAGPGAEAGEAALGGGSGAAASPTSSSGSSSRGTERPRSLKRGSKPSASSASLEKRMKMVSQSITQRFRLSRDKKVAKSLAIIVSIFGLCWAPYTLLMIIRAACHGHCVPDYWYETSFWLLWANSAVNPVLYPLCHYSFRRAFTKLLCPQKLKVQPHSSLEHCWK

What is called Ki is a dissociation constant, usually derived from enzyme kinetics or from competition with a known ligand. Read a high Ki as weaker binding. As for `O=C(/C=C/c1ccc(Cc2c[nH]cn2)cc1)NCCc1ccc(Cl)cc1` [Compound 3], the Ki was in the range of 1 to 19 nM.
